Reference: patent publication US11225459B2, “Substituted bisphenylalkylurea compounds and methods” (TEXAS TECH UNIVERSITY SYSTEM, priority 2017, dated 2022)

Tests used:
H1 receptor = H1 receptor (Homo sapiens, UniProt P35367); test: H1 R inhibition (Ki); format: binding; settings: FIG. 5
From the text: FIG. 5 depicts a graph showing H1 R inhibition (Ki) of compound of the present disclosure designated as Formula I (AZ2-57).

H2 receptor = H2 receptor (Homo sapiens, UniProt P25021); test: H2 R inhibition (Ki); format: binding; settings: FIG. 6
From the text: FIG. 6 depicts a graph showing H2 R inhibition (Ki) of compound of the present disclosure designated as Formula I (AZ2-57).

HUVEC cells = test: Ca2+ release assay (HUVEC cells); format: cell-based; settings: FIG. 7
From the text: FIG. 7 depicts a graph showing Ca2+ release assay (HUVEC cells) of compound of the present disclosure designated as Formula I (AZ2-57).
Unlike many other DAT inhibitors on the market, our compound has very limited interaction with other GPCR receptors, reducing potential CNS-induced toxicity. It is thus an embodiment of the present disclosure to further show effect on microglia-induced immune response (chronic inflammation), dopamine surge in the presence of Formula I (AZ2-57).

[1] = target: Dopamine Transporter (DAT) (Homo sapiens, UniProt Q01959); test: DAT inhibition (Ki), in vitro; format: binding; settings: FIG. 4
From the text: FIG. 4 depicts a graph showing DAT inhibition (Ki) of compound of the present disclosure designated Formula I (AZ2-57).
In one embodiment, compound of the present disclosure Formula I (AZ2-57) is shown in in vitro studies to show DAT inhibition (see FIG. 4).

H1 receptor, sequence (P35367 whole entry): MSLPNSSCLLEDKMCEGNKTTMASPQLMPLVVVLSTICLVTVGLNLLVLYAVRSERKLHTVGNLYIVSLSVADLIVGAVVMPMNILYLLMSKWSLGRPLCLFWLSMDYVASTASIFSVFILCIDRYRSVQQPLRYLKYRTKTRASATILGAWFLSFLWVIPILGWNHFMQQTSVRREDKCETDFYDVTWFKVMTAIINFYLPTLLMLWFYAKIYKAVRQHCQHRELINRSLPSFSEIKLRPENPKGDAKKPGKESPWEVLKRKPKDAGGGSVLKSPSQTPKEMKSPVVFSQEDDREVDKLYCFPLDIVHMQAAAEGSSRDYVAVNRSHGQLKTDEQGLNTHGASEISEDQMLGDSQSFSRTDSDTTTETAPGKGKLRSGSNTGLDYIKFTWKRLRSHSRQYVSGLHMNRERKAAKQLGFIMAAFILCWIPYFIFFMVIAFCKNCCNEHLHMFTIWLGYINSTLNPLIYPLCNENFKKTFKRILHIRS
H2 receptor, sequence (P25021 whole entry): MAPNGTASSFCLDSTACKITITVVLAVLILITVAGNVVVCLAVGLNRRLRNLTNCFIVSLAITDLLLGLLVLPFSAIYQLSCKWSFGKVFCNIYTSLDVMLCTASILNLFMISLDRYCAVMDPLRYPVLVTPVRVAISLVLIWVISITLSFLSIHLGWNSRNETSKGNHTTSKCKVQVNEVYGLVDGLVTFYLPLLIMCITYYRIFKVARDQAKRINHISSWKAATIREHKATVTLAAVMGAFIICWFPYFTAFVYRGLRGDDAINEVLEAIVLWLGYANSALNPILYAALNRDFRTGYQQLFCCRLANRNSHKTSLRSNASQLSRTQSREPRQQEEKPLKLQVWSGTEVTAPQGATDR
Dopamine Transporter (DAT), sequence (Q01959 whole entry, species assumed): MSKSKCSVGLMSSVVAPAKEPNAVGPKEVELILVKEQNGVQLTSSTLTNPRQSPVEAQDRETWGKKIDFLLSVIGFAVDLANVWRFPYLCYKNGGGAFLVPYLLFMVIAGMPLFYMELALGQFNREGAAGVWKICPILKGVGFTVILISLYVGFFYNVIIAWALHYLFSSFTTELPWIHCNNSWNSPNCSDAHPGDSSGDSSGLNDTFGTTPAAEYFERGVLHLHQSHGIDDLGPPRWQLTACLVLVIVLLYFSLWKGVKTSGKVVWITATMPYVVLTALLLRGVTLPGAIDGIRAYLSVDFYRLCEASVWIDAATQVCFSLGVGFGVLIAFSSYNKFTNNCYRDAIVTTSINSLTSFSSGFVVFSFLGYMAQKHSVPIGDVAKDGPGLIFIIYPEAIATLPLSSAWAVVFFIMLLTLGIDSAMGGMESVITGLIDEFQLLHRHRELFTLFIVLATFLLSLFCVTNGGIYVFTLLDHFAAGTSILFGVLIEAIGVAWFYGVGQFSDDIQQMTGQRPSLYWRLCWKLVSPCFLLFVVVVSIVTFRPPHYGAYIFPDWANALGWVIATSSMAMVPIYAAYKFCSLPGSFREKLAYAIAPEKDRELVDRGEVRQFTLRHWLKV

O=C(NCCCCC(c1ccc(F)cc1)c1ccc(F)cc1)Nc1ccc(Cl)cc1 [AZ2-57, 1-(5,5-bis(4-fluorophenyl)pentyl)-3-(4-chlorophenyl)urea]
Ki (H1 receptor): 32 nM
inhibition of H1 receptor (H1 receptor): 65.4%
Ki (H2 receptor): 1750 nM
inhibition of H2 receptor (H2 receptor): 54%
Ca2+ release (HUVEC cells): effectively manipulated
Ki [1]: 5.2 nM
